Laboratory results reported in ChEMBL document CHEMBL3232789, “Design and synthesis of novel 2H-chromen-2-one derivatives bearing 1,2,3-triazole moiety as lead antimicrobials” (2014).

Key:
Aspergillus niger = assay: Antifungal activity against Aspergillus niger MTCC 282 assessed as growth inhibition at 100 ug/mL after 30 hrs by cup plate method; format: functional; details: MTCC 282, 30 h, read-out: DIZ
Aspergillus fumigatus = assay: Antifungal activity against Aspergillus fumigatus MTCC 343 assessed as growth inhibition at 100 ug/mL after 30 hrs by cup plate method; format: functional; details: MTCC 343, 30 h, read-out: DIZ
Aspergillus flavus = assay: Antifungal activity against Aspergillus flavus MTCC 277 assessed as growth inhibition at 100 ug/mL after 30 hrs by cup plate method; format: functional; details: MTCC 277, 30 h, read-out: DIZ
Candida albicans = assay: Antifungal activity against Candida albicans MTCC 227 assessed as growth inhibition at 100 ug/mL after 30 hrs by cup plate method; format: functional; details: MTCC 227, 30 h, read-out: DIZ
Staphylococcus aureus = assay: Antibacterial activity against Staphylococcus aureus MTCC 096 assessed as growth inhibition at 100 ug/mL after 14 hrs by cup plate method; format: functional; details: MTCC 096, 14 h, read-out: DIZ
Bacillus subtilis = assay: Antibacterial activity against Bacillus subtilis MTCC 441 assessed as growth inhibition at 100 ug/mL after 14 hrs by cup plate method; format: functional; details: MTCC 441, 14 h, read-out: DIZ
[1] = system: Staphylococcus epidermidis; assay: Antibacterial activity against Staphylococcus epidermidis MTCC 435 assessed as growth inhibition at 100 ug/mL after 14 hrs by cup plate method; format: functional; details: MTCC 435, 14 h, read-out: DIZ
Escherichia coli = assay: Antibacterial activity against Escherichia coli MTCC 443 assessed as growth inhibition at 100 ug/mL after 14 hrs by cup plate method; format: functional; details: MTCC 443, 14 h, read-out: DIZ
Pseudomonas aeruginosa = assay: Antibacterial activity against Pseudomonas aeruginosa MTCC 424 assessed as growth inhibition at 100 ug/mL after 14 hrs by cup plate method; format: functional; details: MTCC 424, 14 h, read-out: DIZ
Salmonella typhi = assay: Antibacterial activity against Salmonella typhi MTCC 733 assessed as growth inhibition at 100 ug/mL after 14 hrs by cup plate method; format: functional, Salmonella enterica subsp. enterica serovar Typhi; details: Salmonella enterica, MTCC 733, 14 h; read-out: DIZ
Klebsiella pneumoniae = assay: Antibacterial activity against Klebsiella pneumoniae MTCC 432 assessed as growth inhibition at 100 ug/mL after 14 hrs by cup plate method; format: functional; details: MTCC 432, 14 h, read-out: DIZ

Structure (SMILES) | zone of inhibition at 100 µg/mL (Aspergillus niger) [mm] | zone of inhibition at 100 µg/mL (Aspergillus fumigatus) [mm] | zone of inhibition at 100 µg/mL (Aspergillus flavus) [mm] | zone of inhibition at 100 µg/mL (Candida albicans) [mm] | zone of inhibition at 100 µg/mL (Staphylococcus aureus) [mm] | zone of inhibition at 100 µg/mL (Bacillus subtilis) [mm] | zone of inhibition at 100 µg/mL [1] [mm] | zone of inhibition at 100 µg/mL (Escherichia coli) [mm] | zone of inhibition at 100 µg/mL (Pseudomonas aeruginosa) [mm] | zone of inhibition at 100 µg/mL (Salmonella typhi) [mm] | zone of inhibition at 100 µg/mL (Klebsiella pneumoniae) [mm]
Cc1cc(=O)oc2cc(OCCCCCCn3cc(CN4CCN(C)CC4)nn3)ccc12 | 14 | 18.4 | 14.4 | 13.6 | 12.5 | 12.4 | 14.6 | 14.7 | 13.9 | 13.1 | 12.4
Cc1cc(=O)oc2cc(OCCCCn3cc(CN4C(=O)c5ccccc5C4=O)nn3)ccc12 | 12.8 | 19 | 13.8 | 16.5 | 12.8 | 12.9 | 12.4 | 12.7 | 13.9 | 12.2 | 12.4
Cc1cc(=O)oc2cc(OCc3cn(CCCCN4C(=O)c5ccccc5C4=O)nn3)ccc12 | 13.5 | 18.9 | 14.8 | 16.6 | 12.6 | 11.6 | 12.8 | 12.4 | 14 | 12.5 | 11.6
Cc1cc(=O)oc2cc(OCc3cn(CCN4C(=O)c5ccccc5C4=O)nn3)ccc12 | 14.4 | 19.5 | 12.5 | 20.2 | 13 | 10.5 | 12.4 | 14.5 | 13 | 11.9 | 13.3
Cc1cc(=O)oc2cc(OCCCCCCn3cc(CN4CCN(Cc5ccc6c(c5)OCO6)CC4)nn3)ccc12 | 11.9 | 20.6 | 15 | 16.8 | 14 | 12.5 | 11.9 | 12.3 | 14.9 | 14.1 | 13.9
CC(=O)N1CCN(Cc2cn(CCCCCCOc3ccc4c(C)cc(=O)oc4c3)nn2)CC1 | 12.7 | 18.2 | 12.9 | 14.7 | 14.4 | 12.4 | 14.8 | 13.3 | 17.1 | 12.1 | 14.4
Cc1cc(=O)oc2cc(OCc3cn(CCCCCN4C(=O)c5ccccc5C4=O)nn3)ccc12 | 12.3 | 23.4 | 14.5 | 16.9 | 12.5 | 13.6 | 12.6 | 12.5 | 12.9 | 12.7 | 12.6
